Consider three compounds from publication PMC4519333, “Preclinical Evaluation of a Potential GSH Ester Based PET/SPECT Imaging Probe DT(GSHMe)2 to Detect Gamma Glutamyl Transferase Over Expressing Tumors” (PLoS ONE, 2015).

A short description of data set [1]: in vivo. Details: species or system mice. To be noted: BALB/c, mouse, iv, 0.1 mg/kg body weight, total radioactivity. As for the experimental part:
Biodistribution studies were also performed on tumor bearing BALB/c mice. 0.1 mg/Kg body weight ^68Ga-DT(GSHMe)2 (~25 ± 1.5 MBq) was injected through tail vein and at different time points viz., 30 min, 1 and 2 h animals were sacrificed and organs were dissected out. Uptake of radioactivity in individual organ is noted and %ID/g is then calculated.

Data set [2] deals with athymic mice bearing BMG-1 tumors. As to the kind of experiment: Micro PET/CT small animal imaging with ROI analysis. Type of data set: in vivo. To be noted: blocking dose ~5 mg/Kg native GSH, PET 2 h post injection, BMG-1 tumor. As for the experimental part:
Athymic male mice were xenografted with BMG-1 human tumor cell line (0.1 mL of cell suspension containing ~5 ×10^6 BMG cells) in the flank region of the hind limb. BALB/c mice were inoculated with EAT murine tumor cells (5–6 × 10^6) in the flank region of the right hind limb. An inflammation lesion was induced in the fore limb by intramuscular injection of turpentine oil (100 μL) 48 h before imaging. For Scintigraphy, (n = 6) mice used for imaging, biodistribution studies (n = 32 mice) for two experiments 4 mice/group for 4 time points and blood kinetics (n = 18).
Xenografted experimental models were intravenously administered 0.1mg/Kg body weight ^68Ga-DT(GSHMe)2 (37 ± 2.2 MBq) and 0.25 mg/Kg Body weight ^99mTc-DT(GSHMe)2 (29.6 ± 1.8 MBq) via tail vein for PET and SPECT respectively. Blocking dose of ~ 5 mg/Kg body weight of GSH was administered intravenously in the experimental animal. The acquisition was performed 2 h post injection. The ratios were calculated from counts per pixel of individual ROI (Region of interest) for semi-quantitative analysis to understand the distribution and localization.

The subject of data set [3] is cell lines. As to the kind of experiment: MTT assay (cytotoxicity). Type of data set: cell-based. As for the experimental part:
To confirm the results from SRB assay, MTT assay which measures cell metabolic activity was performed to correlate the results obtained using SRB assay. Exponentially growing cells were plated in a 96 well microtitre plate at a cell density of 4000 cells per well 24 h before treatment. Cells were treated with varying concentrations of the drug for different time intervals (24, 48, and 72 h). At the end of treatment, both the treated cells and untreated control were incubated with MTT at final concentration of 0.1mg/mL for 3 h at 37°C and the medium was removed thereafter. Cells from each treatment were lysed and the formazan crystals were dissolved using 150 μL of DMSO for 30 min. Optical density of extracts at 570 nm was measured (reference filter: 630 nm). Surviving fraction was determined and was plotted against concentration as a function of time.

The test system of data set [4] is cell lines. As to the kind of experiment: Sulfo rhodamine B (SRB) assay (cytotoxicity). Type of data set: cell-based. The protocol: SRB assay was performed to estimate the cytotoxicity of DT(GSHMe)2. SRB binds to total protein content of the cells and is independent of metabolic activity. Cells were seeded at the density of 6000 cells per well in 96 well microtiter plate. Cells were treated with varying concentration of DT(GSHMe)2 from 0.001 μM-1000 μM for different time intervals (24, 48 and 72 h). At each time point, 100 μL of ice cold 10% (wt/vol) trichloroacetic acid (TCA) was added to each well and were incubated for 1 h at 4°C followed by washing the plate four times under running tap water. Plates were then air dried and 100 μL of 0.057% SRB solution was added in each well for 30 min. Plates were quickly rinsed four times with 1% (v/v) acetic acid and air dried. To develop color, 200 μL of 10 mM Tris base solution (pH 10.5) was added to each well and kept on gyratory shaker for 5 min. The color intensity was measured fluorometrically at excitation 488 nm and emission at 585 nm. Surviving fraction was calculated and plotted for the concentration range 0.001 μM-1000 μM as a function of time.

In data set [5] the test system is BMG-1 cells. As to the kind of experiment: Cell cycle analysis by flow cytometry (PI). The format is cell-based, human. As for the experimental part:
10^5 cells per well were plated in a Petri dishes and kept in the incubator overnight at 37°C. Following day, cells were treated with different drug concentrations (0.01 μM –1000 μM). At specific time points, media was carefully removed and cells were harvested in micro centrifuge tubes. Cells were centrifuged at 1200 rpm for 6 min. Supernatant was removed and 700 μL of 80% cold ethanol was added drop wise. Pellet was uniformly dispersed and samples were stored at 4°C for at least 24 h. Samples were centrifuged to remove supernatant and RNAse at a final concentration of 0.5 mg/mL was added to the pellet and incubated at 37°C for 1 h. Finally Propidium Iodide (PI) solution at a final concentration of 10μg/mL was added and the samples were analyzed by flow cytometry.

Data set [6] in a line: In vivo total glutathione estimation from tumor, RBC and plasma. Details: species or system BALB/c mice bearing EA tumors. To be noted: n = 3. As for the experimental part: Levels of total Glutathione (GSH/GSSG) were estimated from tumor, RBC and plasma isolated from BALB/c mice bearing EA tumors, after injection of unlabeled 100 μM DT(GSHMe)2 (100 μL). At time points (15 min, 30 min, 1, 2and 4 h), blood samples were withdrawn and tumors were excised. Tumors were homogenized in 3 volumes of 5% sulfosalicylic acid (SSA) and centrifuged at 10,000 x g for 10 min at 4°C. Blood was centrifuged and the plasma fraction was separated from RBC pellet. To each RBC and plasma fractions, equal volume of 5% SSA was added, followed by vortexing and centrifugation at 10,000 x g for 10 min at 4°C. Supernatant was collected and used for estimating total glutathione levels.

The nature of data set [7]: Log P calculation (octanol/PBS partition). Type of data set: physicochemical. The conditions noted are these: shake-flask 1-octanol/PBS pH 7.4, equal volumes, vortexed 10 min, centrifuged 5000 rpm 5 min, gamma counter, repeated thrice; read-out: Log P. As for the experimental part:
The value of partition coefficient of radiolabeled […] calculated and expressed as log P. The radiolabeled […] passed through 0.22 μ filter and approximately 10.2 ± 1.5 MBq of labeled compound was diluted in PBS, pH 7.4. To this equal volume of 1-octanol was added. The mixture was thoroughly vortexed for 10 min and then centrifuged at 5000 rpm for 5 min. […] The measurement was repeated thrice. The partition coefficient (P) was calculated using the following equation wherein, P = (counts in octanol fraction) / (counts in PBS fraction). For each value of P, log P value is calculated.

Where [8] appears, read: 0.25 h after injection of 100 μM unlabeled compound.

For `CCOC(=O)CNC(=O)[C@H](CS)NC(=O)CC[C@H](NC(=O)CN(CCN(CCN(CC(=O)O)CC(=O)N[C@@H](CCC(=O)N[C@@H](CS)C(=O)NCC(=O)OCC)C(=O)O)CC(=O)O)CC(=O)O)C(=O)O` [68Ga-DT(GSHMe)2, metal not drawn], the tissue to tissue ratio at 2 h in data set [1] was 26.4. The “block of uptake at tumor site by GSH” value in data set [2] was 95.57%.
Take `CCOC(=O)CNC(=O)[C@H](CS)NC(=O)CC[C@H](NC(=O)CN(CCN(CCN(CC(=O)O)CC(=O)N[C@@H](CCC(=O)N[C@@H](CS)C(=O)NCC(=O)OCC)C(=O)O)CC(=O)O)CC(=O)O)C(=O)O` [DT(GSHMe)2, Diethylene triaminpentaacetic acid bis glutathione monoethylester]: in data set [3] (100 μM concentration, in vitro evaluations on cell lines), the “toxicity on cell lines” value is reported as “minimal toxicity”. Moreover, the “toxicity” value is “nontoxic” in data set [3] (MTT, lower concentration (below 100 μM), 24-72 h) and “nontoxic” in data set [4] (lower concentration (below 100 μM)). For the same compound, the “cell population remained viable” value in data set [4] (1000 μM, 72 h) is on record as 11.57 ± 3.84%. Further, the IC50 in data set [4] (cell line not stated, read-out: IC50 (nearly 50% cell lysis)) is about 500 µM. The G1 cell population was 83.2 ± 4.16% in data set [5] (BMG-1, 1 μM, 24 h) and 49.5 ± 2.47% in data set [5] (BMG-1, 1000 μM, 24 h). Also, the “increase of apoptotic cells versus control” value in data set [5] (BMG-1, 1000 μM, 24 h) is reported as “approximately 14 folds”. In data set [5] (BMG-1, 1000 μM, 24 h treatment), this compound yielded an apoptotic cells of 23.4 ± 1.17%. The Plasma total glutathione in data set [6] (setting [8]) is given as 0.13 ± 0.029 μmoles of GSH/ml; in data set [6] (0.5 h after injection), 0.16 ± 0.028 μmoles of GSH/ml; in data set [6] (1 h after injection) it was 0.28 ± 0.127 μmoles of GSH/ml; in data set [6] (2 h after injection) it was 0.32 ± 0.155 μmoles of GSH/ml; in data set [6] (4 h after injection), 0.23 ± 0.041 μmoles of GSH/ml. The RBC total glutathione in data set [6] (setting [8]) was 0.38 ± 0.021 μmoles of GSH/ml; in data set [6] (0.5 h after injection), 0.39 ± 0.026 μmoles of GSH/ml; in data set [6] (1 h after injection), 0.45 ± 0.010 μmoles of GSH/ml; in data set [6] (2 h after injection), 0.5 ± 0.11 μmoles of GSH/ml; in data set [6] (4 h after injection), 0.39 ± 0.001 μmoles of GSH/ml. Also, the Tumor total glutathione in data set [6] (setting [8]) is reported as 3 ± 0.007 μmoles of GSH/g tissue weight; in data set [6] (0.5 h after injection) it was 4.3 ± 0.019 μmoles of GSH/g tissue weight; in data set [6] (1 h after injection), 4.5 ± 0.070 μmoles of GSH/g tissue weight; in data set [6] (2 h after injection), 4.9 ± 0.010 μmoles of GSH/g tissue weight; in data set [6] (4 h after injection), 4.1 ± 0.010 μmoles of GSH/g tissue weight.
Take `N[C@@H](CCC(=O)N[C@@H](CS)C(=O)NCC(=O)O)C(=O)O` [glutathione, Glutathione, reference compound]: in data set [7], the logD was -3.23 ± 0.141.
